This is an account of results in US11413260B2, “Use of 1,3-propanedisulfonic acid or pharmaceutically acceptable salts thereof for the treatment of sarcoidosis” (Icahn School of Medicine at Mount Sinai, priority 2014, dated 2022).

Assay [1] has as its system SAA-induced production of IL-18 by THP-1 cells. Put plainly: SAA-stimulated inflammation in THP-1 cells: IL-18 production. It is filed as cell-based. As to conditions: THP-1 cells treated with PMA and SAA. The text has this:
(§1) FIG. 1 summarizes the protocol employed to evaluate the effect of 1,3-propanedisulfonic acid (or a pharmaceutically acceptable salt thereof) on SAA (serum amyloid A) stimulated inflammation in THP-1 cells.
(§2) THP-1 cells were subjected to PMA (phorbol 12-myristate 13-acetate (EMD Cat. #524400)), SAA (serum amyloid A (PeroTech Cat. #300-13)), and 1,3-propanedisulfonic acid (KIACTA C933 (NRA610-01-CF)). The SAA treated cells were used as a positive control, with the SAA increasing the inflammatory mediators, TNF, IL-18 and IL-10. 1,3-propanedisulfonic acid is added to the cell cultures and the effect on TNF, IL-18 and IL-10 levels is measured.

The test system of assay [2] is SAA-induced production of IL-10 by THP-1 cells. In words: SAA-stimulated inflammation in THP-1 cells: IL-10 production. The assay is classed as cell-based. The conditions noted are these: THP-1 cells treated with PMA and SAA.
Excerpt: as §1, §2

Assay [3] concerns SAA-induced production of IL-TNF by THP-1 cells. Put plainly: SAA-stimulated inflammation in THP-1 cells: TNF production. It is filed as cell-based. As to conditions: THP-1 cells treated with PMA and SAA.
Excerpt: as §1, §2

The test system of assay [4] is sarcoidosis. In words: Treatment of a patient diagnosed with sarcoidosis. It is filed as in vivo. As to the method: A patient is diagnosed with sarcoidosis, and 1,3-propane disulfonic acid is administered to the patient.

As to `O=S(=O)(O)CCCS(=O)(=O)O` [1,3-propanedisulfonic acid], the “concentration that inhibits SAA-induced production of IL-18” value in assay [1] was at least 5 mg/mL. In addition, in assay [2], the “concentration that inhibits SAA-induced production of IL-10” value was at least 2.5 mg/mL. In assay [3], the “concentration that inhibits SAA-induced production of IL-TNF” value was at least 1.25 mg/mL. Moreover, in assay [4], the “effect on sarcoidosis symptoms” value is “reduction and/or alleviation of sarcoidosis symptoms”.
